Experimental data as given in patent publication US20230104936A1, “TRPML MODULATORS” (Casma Therapeutics, Inc., priority 2019, published 2023).

Tested on: TFEB
Test: TFEB nuclear translocation assay, HeLa wt cells
Assay type: cell-based
Settings: 2 hrs compound treatment, Table 1 does not say HeLa wt or TRPML1 KO
Method in brief: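 TFEB translocation into the nucleus of HeLa wt cells is scored by high-content immunofluorescence after 2 hrs of compound treatment at 37° C, reported as AC50.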

In the case of `CC(c1cccc(F)c1N1CCC(CN2C3COCC2C3)CC1)S(=O)(=O)c1ccc(S(=O)(=O)N(C)C)cc1` (stereo not drawn) [Compound A-870, 4-((1-(2-(4-((3-oxa-6-azabicyclo[3.1.1]heptan-6-yl)methyl)piperidin-1-yl)-3-fluorophenyl)ethyl)sulfonyl)-N,N-dimethylbenzenesulfonamideformate], the AC50 is reported as ≥ 10000 nM.

Same assay, conditions: Homo sapiens, HeLa, 2 h, 2 hrs compound treatment, Table 1 does not say HeLa wt or TRPML1 KO

`C[C@@H]1CN(CC2CCN(c3c(F)cccc3NS(=O)(=O)c3ccc(S(=O)(=O)N(C)C)cc3)CC2)[C@@H](C)CO1` [Compound A-865, N4-[2-(4-{[(2R,5S)-2,5-dimethylmorpholin-4-yl]methyl}piperidin-1-yl)-3-fluorophenyl]-N1,N1-dimethylbenzene-1,4-disulfonamide] and `C[C@@H]1CN(C2CCN(c3c(F)cccc3NS(=O)(=O)c3ccc(S(=O)(=O)N(C)C)cc3)CC2)C[C@H](C)O1` [Compound A-868, N4-(2-{4-[(2R,6S)-2,6-dimethylmorpholin-4-yl]piperidin-1-yl}-3-fluorophenyl)-N1,N1-dimethylbenzene-1,4-disulfonamide] cannot be ordered by AC50: ≤ 2000 nM for the first, ≤ 2000 nM for the second.

Going from `CC1COCC(C)N1CC1CCN(c2c(F)cccc2NS(=O)(=O)c2ccc(S(=O)(=O)C(F)F)cc2)CC1` (stereo not drawn) [Compound A-866, 4-difluoromethanesulfonyl-N-(2-{4-[(3,5-dimethylmorpholin-4-yl)methyl]piperidin-1-yl}-3-fluorophenyl)benzene-1-sulfonamide] to `C[C@@H]1COC[C@H](C)N1CC1CN(c2c(F)cccc2NS(=O)(=O)c2ccc(S(=O)(=O)N(C)C)cc2)C1` [Compound A-900, N4-[2-(3-{[(3R,5S)-3,5-dimethylmorpholin-4-yl]methyl}azetidin-1-yl)-3-fluorophenyl]-N1,N1-dimethylbenzene-1,4-disulfonamide], the AC50 rises from ≤ 2000 nM to ≥ 10000 nM.

`CN(C)S(=N)(=O)c1ccc(S(=O)(=O)Nc2cccc(F)c2N2CCC(CN3CCOCC3(C)C)CC2)cc1` (stereo not drawn) [Compound A-867, 4-[(2-{4-[(3,3-dimethylmorpholin-4-yl)methyl]piperidin-1-yl}-3-fluorophenyl)sulfamoyl]-N,N-dimethylbenzene-1-sulfonoimidamide] and `CC(C1CCN(c2c(F)cccc2NS(=O)(=O)c2ccc(S(=N)(=O)N(C)C)cc2)CC1)N1C[C@@H](C)O[C@@H](C)C1` (stereo partly drawn) [Compound A-872A, N-(2-(4-(1-((2S,6R)-2,6-dimethylmorpholino)ethyl)piperidin-1-yl)-3-fluorophenyl)-4-(N,N-dimethylsulfamidimidoyl)benzenesulfonamide] cannot be ordered by AC50: ≤ 2000 nM for the first, ≤ 2000 nM for the second.

`CC(c1cccc(F)c1N1CCC(CN2C3COCC2C3)CC1)S(=O)(=O)c1ccc(S(=O)(=O)N(C)C)cc1` [Compound A-869, rel-4-[(1R)-1-{3-fluoro-2-[4-({3-oxa-6-azabicyclo[3.1.1]heptan-6-yl}methyl)piperidin-1-yl]phenyl}ethanesulfonyl]-N,N-dimethylbenzene-1-sulfonamide] and `CC(c1cccc(F)c1N1CCC(CN2C3CCC2COC3)CC1)S(=O)(=O)c1ccc(S(C)(=O)=O)cc1` (stereo not drawn) [Compound A-904, 8-[(1-{2-fluoro-6-[1-(4-methanesulfonylbenzenesulfonyl)ethyl]phenyl}piperidin-4-yl)methyl]-3-oxa-8-azabicyclo[3.2.1]octane] fall in the same range of AC50: 2010 to 8000 nM for the first, 2010 to 8000 nM for the second.

`CN(C)S(=O)(=O)c1ccc(S(=O)(=O)Nc2cccc(F)c2N2CCC(N3CCC4(CCOC4)C3)CC2)cc1` (stereo not drawn) [Compound A-874, N4-[3-fluoro-2-(4-{2-oxa-7-azaspiro[4.4]nonan-7-yl}piperidin-1-yl)phenyl]-N1,N1-dimethylbenzene-1,4-disulfonamide] and `CN(C)S(=O)(=O)c1ccc(S(=O)(=O)Nc2cccc(F)c2N2CCC(N3CCC34CCCOC4)CC2)cc1` (stereo not drawn) [Compound A-917, N4-[3-fluoro-2-(4-{6-oxa-1-azaspiro[3.5]nonan-1-yl}piperidin-1-yl)phenyl]-N1,N1-dimethylbenzene-1,4-disulfonamide] fall in the same range of AC50: 2010 to 8000 nM for the first, 2010 to 8000 nM for the second.

Compared with `CC1(C)Cc2cc(S(=O)(=O)Nc3cccc(F)c3N3CCC(CN4C5COCC4C5)CC3)ccc2O1` [Compound A-875, N-{3-fluoro-2-[4-({3-oxa-6-azabicyclo[3.1.1]heptan-6-yl}methyl)piperidin-1-yl]phenyl}-2,2-dimethyl-2,3-dihydro-1-benzofuran-5-sulfonamide], `CC1(C)Cc2cc(S(=O)(=O)Nc3cccc(F)c3N3CCC(CN4C5CCC4COC5)CC3)ccc2O1` [Compound A-880, N-{3-fluoro-2-[4-({3-oxa-8-azabicyclo[3.2.1]octan-8-yl}methyl)piperidin-1-yl]phenyl}-2,2-dimethyl-2,3-dihydro-1-benzofuran-5-sulfonamide] is lower in AC50: ≥ 10000 nM for the first, ≤ 2000 nM for the second.

Compared with `O=S(=O)(Nc1cccc(F)c1N1CCC(CN2C3COCC2C3)CC1)c1ccc2c(c1)CCC2` [Compound A-876, N-{3-fluoro-2-[4-({3-oxa-6-azabicyclo[3.1.1]heptan-6-yl}methyl)piperidin-1-yl]phenyl}-2,3-dihydro-1H-indene-5-sulfonamide], `O=S(=O)(Nc1cccc(F)c1N1CCC(CN2C3CCC2COC3)CC1)c1ccc2c(c1)CCC2` [Compound A-882, N-{3-fluoro-2-[4-({3-oxa-8-azabicyclo[3.2.1]octan-8-yl}methyl)piperidin-1-yl]phenyl}-2,3-dihydro-1H-indene-5-sulfonamide] is lower in AC50: ≥ 10000 nM for the first, ≤ 2000 nM for the second.

`CN(C)S(=N)(=O)c1ccc(S(=O)(=O)Nc2ccccc2N2CCC(COC(F)(F)CF)CC2)cc1` (stereo not drawn) [Compound A-877, N,N-dimethyl-4-[(2-{4-[(1,1,2-trifluoroethoxy)methyl]piperidin-1-yl}phenyl)sulfamoyl]benzene-1-sulfonoimidamide] and `CN(C)S(=O)(=O)c1ccc(S(=O)(=O)Nc2cccc(F)c2N2CCC(CN3CC4C(C3)C4(F)F)CC2)cc1` (stereo not drawn) [Compound A-883, N4-{2-[4-({6,6-difluoro-3-azabicyclo[3.1.0]hexan-3-yl}methyl)piperidin-1-yl]-3-fluorophenyl}-N1,N1-dimethylbenzene-1,4-disulfonamide] cannot be ordered by AC50: ≤ 2000 nM for the first, ≤ 2000 nM for the second.

`C[C@@H]1CN(CC2CCN(c3c(C#N)cccc3NS(=O)(=O)c3ccc(S(=O)(=O)N(C)C)cc3)CC2)C[C@H](C)O1` [Compound A-878, N4-[3-cyano-2-(4-{[(2R,6S)-2,6-dimethylmorpholin-4-yl]methyl}piperidin-1-yl)phenyl]-N1,N1-dimethylbenzene-1,4-disulfonamide] and `CC(c1cccnc1N1CCC(CN2C[C@@H](C)O[C@@H](C)C2)CC1)S(=O)(=O)c1ccc(S(=O)(=O)N(C)C)cc1` (stereo partly drawn) [Compound A-879, 4-{1-[2-(4-{[(2R,6S)-2,6-dimethylmorpholin-4-yl]methyl}piperidin-1-yl)pyridin-3-yl]ethanesulfonyl}-N,N-dimethylbenzene-1-sulfonamide] cannot be ordered by AC50: ≤ 2000 nM for the first, ≤ 2000 nM for the second.

First: Cc1ccc(S(=O)(=O)Nc2cccc(F)c2N2CCC(CN3C4CCC3COC4)CC2)cc1 [Compound A-881, N-{3-fluoro-2-[4-({3-oxa-8-azabicyclo[3.2.1]octan-8-yl}methyl)piperidin-1-yl]phenyl}-4-methylbenzene-1-sulfonamide]
Second: Cc1ccc(S(=O)(=O)Nc2cccc(F)c2N2CCC(CN3C4COCC3C4)CC2)cc1 [Compound A-889, N-{3-fluoro-2-[4-({3-oxa-6-azabicyclo[3.1.1]heptan-6-yl}methyl)piperidin-1-yl]phenyl}-4-methylbenzene-1-sulfonamide]
The AC50 of the first is lower: ≤ 2000 nM for the first, 2010 to 8000 nM for the second.

First: CC(c1cccc(F)c1N1CCC(CN2C3CCC2COC3)CC1)S(=O)(=O)c1ccc2c(c1)CC(C)(C)O2 (stereo not drawn) [Compound A-886, 8-{[1-(2-{1-[(2,2-dimethyl-2,3-dihydro-1-benzofuran-5-yl)sulfonyl]ethyl}-6-fluorophenyl)piperidin-4-yl]methyl}-3-oxa-8-azabicyclo[3.2.1]octane]
Second: CC(c1cccc(F)c1N1CCC(CN2C3CCC2COC3)CC1)S(=O)(=O)c1ccc2c(c1)CCC2 (stereo not drawn) [Compound A-908, 8-[(1-{2-[1-(2,3-dihydro-1H-indene-5-sulfonyl)ethyl]-6-fluorophenyl}piperidin-4-yl)methyl]-3-oxa-8-azabicyclo[3.2.1]octane]
The AC50 of the first is lower: ≤ 2000 nM for the first, 2010 to 8000 nM for the second.

First: Cc1cc(Cl)c(N2CCOCC2)c(NS(=O)(=O)c2ccc3c(c2)CCC3)c1 [Compound A-887, N-[3-chloro-5-methyl-2-(morpholin-4-yl)phenyl]-2,3-dihydro-1H-indene-5-sulfonamide]
Second: Cc1cc(Cl)c(N2CCOCC2)c(NS(=O)(=O)c2ccc(S(=O)(=O)N(C)C)cc2)c1 [Compound A-888, N4-[3-chloro-5-methyl-2-(morpholin-4-yl)phenyl]-N1,N1-dimethylbenzene-1,4-disulfonamide]
The AC50 of the first is lower: ≤ 2000 nM for the first, 2010 to 8000 nM for the second.

Compared with `O=S(=O)(Nc1cccc(F)c1N1CCC(CN2C3COCC2C3)CC1)c1ccc(C(F)(F)C2CC2)cc1` [Compound A-898, 4-(cyclopropyldifluoromethyl)-N-{3-fluoro-2-[4-({3-oxa-6-azabicyclo[3.1.1]heptan-6-yl}methyl)piperidin-1-yl]phenyl}benzene-1-sulfonamide], `Cc1ccc(S(=O)(=O)C(C)c2cccc(F)c2N2CCC(CN3C4CCC3COC4)CC2)cc1` (stereo not drawn) [Compound A-905, 8-[(1-{2-fluoro-6-[1-(4-methylbenzenesulfonyl)ethyl]phenyl}piperidin-4-yl)methyl]-3-oxa-8-azabicyclo[3.2.1]octane] is lower in AC50: ≥ 10000 nM for the first, ≤ 2000 nM for the second.

Going from `CN(C)S(=O)(=O)c1ccc(S(=O)(=O)Nc2cccc(F)c2N2CCC(C)(N)CC2)cc1` [Compound A-899, N4-[2-(4-amino-4-methylpiperidin-1-yl)-3-fluorophenyl]-N1,N1-dimethylbenzene-1,4-disulfonamide] to `C#Cc1cccc(NS(=O)(=O)c2ccc(S(=O)(=O)N(C)C)cc2)c1N1CCCCC1` [Compound A-901, N4-[3-ethynyl-2-(piperidin-1-yl)phenyl]-N1,N1-dimethylbenzene-1,4-disulfonamide], the AC50 falls from ≥ 10000 nM to ≤ 2000 nM.

In the case of `CC(c1cccc(F)c1N1CCC(CN2C3CCC2COC3)CC1)S(=O)(=O)c1ccc(C(F)F)cc1` (stereo not drawn) [Compound A-906, 8-{[1-(2-{1-[4-(difluoromethyl)benzenesulfonyl]ethyl}-6-fluorophenyl)piperidin-4-yl]methyl}-3-oxa-8-azabicyclo[3.2.1]octane], the AC50 is reported as ≤ 2000 nM.
